Legend:
Type in all cases: in vivo
Spodoptera exigua = assay: Insecticidal activity against Spodoptera exigua, leaf disc dipping feeding method; conditions: foliar, 72 h, 0.625 mg/L, 3 days after the administration, read-out: mortality rate against Spodoptera exigua
Protocol: After the compound to be determined was dissolved in a mixed solvent of acetone/methanol (1:1), it was diluted with water containing 0.1% (wt) Tween-80 to a desired concentration. […]
Determination method: the activity was tested by using a leaf disc dipping feeding method. Leaf discs were dipped in a drug solution for 10 s, and placed in a culture dish after being air-dried, there were 4 discs in each dish, and a filter paper was placed in the culture dish for moisture retention. 10 test insects of Spodoptera exigua were introduced to each dish, with 3 replicates.
They were placed in a light incubator for culture at a temperature of 25° C. and an illumination of 14hL:10hD. On the 1st, 2nd, and 3rd day after the administration, the number of dead Spodoptera exigua was investigated and the mortality rate was calculated.

[1] = tested on: Franklinella occidentalis; assay: Insecticidal activity against Franklinella occidentalis nymphs, sprayed bean leaves
Protocol: (§1) After the compound to be determined was dissolved in a mixed solvent of acetone/methanol (1:1), it was diluted with water containing 0.1% (wt) Tween-80 to a desired concentration.
(§2) Mythimna separata, Diamondback moth, Chilo suppressalis, Spodoptera exigua, Myzus persicae, and Franklinella occidentalis were used as targets, and the activity was tested by an Airbrush spray method.
Determination method: fresh bean leaves cultivated in a greenhouse were selected, a hand-held Airbrush sprayer was used to spray uniformly, each treatment was 1 mL, and after being air-dried naturally, the leaves were placed in a finger-shaped tube. Neat and healthy Franklinella occidentalis nymphs were introduced, there were 15 nymphs for each treatment, 3 replicates were set for the experiment, and water treatment was set as a blank control. After the treatment, the leaves were put into an indoor culture room for culture at 24° C., a relative humidity of 60-70%, and natural light. After 72 h, the number of live insects was investigated and the mortality rate was calculated.

Mythimna separata = assay: Insecticidal activity against Mythimna separata, Airbrush spray on maize leaf pieces; conditions: 72 h, 0.05 mg/L, 3 days after the administration, 3rd-instar larvae, read-out: mortality rate against Mythimna separata
Protocol: as §1, §2
Determination method: maize leaves were cut into 2 cm leaf pieces, and the front and back of each leaf piece were sprayed under an Airbrush spray treatment pressure of 10 psi (approximate to 0.7 kg/cm^2) and with a spray volume of 0.5 mL. After drying in the shade, 10 3rd-instar larvae were inoculated for each treatment, and each treatment was repeated for 3 times. After the treatment, the leaf pieces were put into an observation chamber at 25° C. and with a relative humidity of 60% to 70%, and the number of living larvae was investigated 3 days after the administration of the compounds, and the mortality rates were calculated.

Chilo suppressalis = assay: Insecticidal activity against Chilo suppressalis, sprayed rice stems; conditions: 72 h, 0.625 mg/L, 3 days after the administration, 3rd-instar larvae, read-out: mortality rate against Chilo suppressalis
Protocol: as §1, §2
Determination method: 1) Preparation of rice seedlings: rice was cultured in a plastic small cup with a diameter of 4.5 cm and a height of 4 cm in a constant temperature room (the temperature was 26-28° C., the relative humidity was about 60-80%, and the illumination was 16hL:8hD), when the rice grown to a 4-5 leaf stage, robust and uniformly grown rice seedlings were selected for pharmaceutical treatment, and 3 replicates were set for each treatment. 2) Preparation of test insects: 3rd-instar larvae of Chilo suppressalis were continuously reared indoors. 3) Rice stems were sprayed and insects were introduced. A spray method was used to treat whole rice seedlings with uniform spray, and each treatment was 15 mL. Blank controls were treated firstly, and then the above operation was repeated in an order of experimental concentrations from low to high. After the spray treatment of the rice seedlings, they were placed in the shade to air-dry drug liquid, about 5 cm of the stem from a basal part of the stem was cut and fed to the test insects. A glass culture dish with a diameter of 90 mm was prepared, filter paper was placed on the bottom of the dish, then water was added to moisturize. About 5 rice stems were placed in each dish, 10 larvae were introduced, and the culture dish was closed with non-woven fabric and placed in the constant-temperature room for culture. 3 days after the administration, the number of residual live insects was investigated.

Diamondback moth = assay: Insecticidal activity against Diamondback moth, Airbrush spray on cabbage leaf discs; conditions: Plutella xylostella, foliar, 72 h, 3 days after the administration; for mortality at 1.25 µg/mL: 1.25 mg/L, 3rd-instar larvae, read-out: mortality rate against Diamondback moth; for mortality at 10 µg/mL: 10 mg/L, read-out: Mortality rate (%, 3 days after the administration) 10 mg/L
Protocol: as §1, §2
Determination method: cabbage leaves were formed into leaf discs having a diameter of 2 cm using a puncher, and the front and back of each leaf disc were sprayed under an Airbrush spray treatment pressure of 10 psi (approximate to 0.7 kg/cm^2) and with a spray volume of 0.5 mL. After drying in the shade, 10 3rd-instar larvae were inoculated for each treatment, and each treatment was repeated for 3 times. After the treatment, the leaf discs were placed into an observation chamber at 25° C. and with a relative humidity of 60% to 70%, and the number of living larvae was investigated 3 days after the administration of the compounds, and the mortality rates were calculated.

cat flea = assay: Insecticidal experiment on cat flea, thin film in culture dish; conditions: Ctenocephalides felis, 72 h, read-out: mortality rate, cat flea
Protocol: 4 mg of the compound to be determined was dissolved in 40 mL of acetone to obtain an acetone solution with a concentration of 100 mg/L. 400 μL of the drug solution was applied on the bottom and sides of a culture dish with an inner diameter of 5.3 cm, then after acetone was evaporated, a thin film of the compound of the present invention was made on the inner wall of the culture dish. The inner wall of the culture dish used was 40 cm^2, and the treatment dosage was 1 μg/cm^2. 10 adult cat fleas (mixed male and female) were put into the dish, and it was stored in a constant-temperature room at 25° C. after being covered. The number of dead insects after 72 h was checked and the mortality rate was calculated. The experiment was repeated for 3 times.

Myzus persicae = assay: Insecticidal activity against Myzus persicae, Airbrush spray on cabbage leaves; conditions: 50 mg/L, after 48 h, read-out: mortality rate against Myzus persicae
Protocol: as §1, §2
Determination method: a culture dish with a diameter of 6 cm was taken, the bottom of the dish was covered by a layer of filter paper, and an appropriate amount of tap water was added to moisturize the paper. Cabbage leaves with an appropriate size (the diameter was about 3 cm) and 15-30 aphids grown were cut from cabbage plants used to culture Myzus persicae, winged aphids and aphids on the front of the leave were removed, and it was placed in the culture dish while the back of the leave was upward. The pressure of airbrush spray treatment was 10 psi (about 0.7 kg/cm^2), the liquid spray volume was 0.5 mL, and there were 3 replicates for each treatment. After the treatment, the leave was put into an observation room for culture at 25° C. and a relative humidity of 60-70%. After 48 h, the number of live insects was investigated and the mortality rate was calculated.

Structure (SMILES) | mortality at 0.625 µg/mL (Spodoptera exigua) | Mortality rate (%, 3 days after the administration) 10 mg/L ([1]; 10 mg/L) | Mortality rate (%, 3 days after the administration) 100 mg/L ([1]; 100 mg/L) | mortality at 0.05 µg/mL (Mythimna separata) | mortality at 0.625 µg/mL (Chilo suppressalis) | mortality at 0.156 µg/mL (Diamondback moth; 0.156 mg/L, Diamondback moth, read-out: Mortality rate (%, 3 days after the administration) 0.156 mg/L) | mortality at 0.313 µg/mL (Diamondback moth; 0.313 mg/L, Diamondback moth, read-out: Mortality rate (%, 3 days after the administration) 0.313 mg/L) | mortality at 1.25 µg/mL (Diamondback moth) | mortality at 10 µg/mL (Diamondback moth; Diamondback moth) | mortality at 1 µg/cm2 (cat flea) | mortality at 50 µg/mL (Myzus persicae)
C=CCN(C(=O)c1ccccc1)c1cccc(C(=O)Nc2c(Br)cc(C(F)(C(F)(F)F)C(F)(F)F)cc2C(F)(F)F)c1F [Compound 3] | > 90% | 93.33% | 100% | > 90% | > 90% | 100% | 100% | > 90% | 100% | > 90% | > 90%
C=CCN(C(=O)c1ccc(C#N)cc1)c1cccc(C(=O)Nc2c(Br)cc(C(F)(C(F)(F)F)C(F)(F)F)cc2C(F)(F)F)c1F [Compound 11] | > 90% | – | – | > 90% | > 90% | – | – | > 90% | 100% | > 90% | > 90%
C=CCN(C(=O)c1ccc(C#N)nc1)c1cccc(C(=O)Nc2c(I)cc(C(F)(C(F)(F)F)C(F)(F)F)cc2C(F)(F)F)c1F [Compound 24] | > 90% | – | – | > 90% | > 90% | – | – | > 90% | 100% | > 90% | > 90%
C=CCN(C(=O)c1ccc(C(F)(F)F)nc1)c1cccc(C(=O)Nc2c(I)cc(C(F)(C(F)(F)F)C(F)(F)F)cc2C(F)(F)F)c1F [Compound 28] | > 90% | – | – | > 90% | > 90% | – | – | > 90% | 100% | > 90% | > 90%
C#CCN(C(=O)c1ccc(C#N)nc1)c1cccc(C(=O)Nc2c(Br)cc(C(F)(C(F)(F)F)C(F)(F)F)cc2C(F)(F)F)c1F [Compound 51] | > 90% | – | – | > 90% | > 90% | – | – | > 90% | 100% | > 90% | > 90%
C=CCN(C(=O)c1ccc(C#N)nc1)c1cccc(C(=O)Nc2c(Br)cc(C(F)(C(F)(F)F)C(F)(F)F)cc2C(F)(F)F)c1F [Compound 23] | > 90% | – | – | > 90% | > 90% | – | – | > 90% | 100% | > 90% | > 90%
C#CCN(C(=O)c1ccc(C(F)(F)F)nc1)c1cccc(C(=O)Nc2c(I)cc(C(F)(C(F)(F)F)C(F)(F)F)cc2C(F)(F)F)c1F [Compound 56] | > 90% | – | – | > 90% | > 90% | – | – | > 90% | 100% | > 90% | > 90%
C=CCN(C(=O)c1ccccc1)c1cccc(C(=O)Nc2c(I)cc(C(F)(C(F)(F)F)C(F)(F)F)cc2C(F)(F)F)c1F [Compound 4] | > 90% | – | – | > 90% | > 90% | – | – | > 90% | 100% | > 90% | > 90%
C#CCN(C(=O)c1ccc(C(F)(F)F)nc1)c1cccc(C(=O)Nc2c(Br)cc(C(F)(C(F)(F)F)C(F)(F)F)cc2C(F)(F)F)c1F [Compound 55] | > 90% | – | – | > 90% | > 90% | – | – | > 90% | 100% | > 90% | > 90%
C#CCN(C(=O)c1ccc(C#N)nc1)c1cccc(C(=O)Nc2c(I)cc(C(F)(C(F)(F)F)C(F)(F)F)cc2C(F)(F)F)c1F [Compound 52] | > 90% | – | – | > 90% | > 90% | – | – | > 90% | 100% | > 90% | > 90%
